Assays:
[1] = target: T1, Fuc-TVI (Homo sapiens, UniProt P51993); test: Fucosyltransferase assay, extracts of COS-1 cells transfected with pCDNA1-Fuc-TVI; assay type: biochemical; settings: for utilization as acceptor substrate by Fuc-TVI (in words): extracts of COS-1 cells transfected with pCDNA1-Fuc-TVI; for Relative Activity (%) with Fuc-TVI: relative product formation rate, N-acetyllactosamine = 100, acceptor 20 mM (2-fucosyllactose 5 mM), GDP-[14C]fucose 3 μM, transfected COS-1 cell extract
T1 construct: a 1.2 kb fragment containing the entire open reading frame was generated by the polymerase chain reaction; expressed in transfected cells; host or cells: COS-1 cells, transient transfection, 1% Triton X-100 extract
T1 sequence (P51993 1-359): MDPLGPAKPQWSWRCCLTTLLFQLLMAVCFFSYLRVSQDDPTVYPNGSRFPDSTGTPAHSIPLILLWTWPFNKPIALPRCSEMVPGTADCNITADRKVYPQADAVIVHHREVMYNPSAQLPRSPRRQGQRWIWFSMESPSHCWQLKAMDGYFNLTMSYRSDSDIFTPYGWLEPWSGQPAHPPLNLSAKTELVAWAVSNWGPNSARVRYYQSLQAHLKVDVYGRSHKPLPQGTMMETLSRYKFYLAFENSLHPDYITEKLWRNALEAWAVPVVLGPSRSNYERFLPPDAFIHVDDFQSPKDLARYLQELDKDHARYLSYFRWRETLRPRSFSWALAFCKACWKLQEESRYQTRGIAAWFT
Procedure: (§1) Cell extracts containing 1% Triton X-100 were prepared from transfected COS-1 cells, using procedures described previously (Kukowska-Latallo et al, Genes Devel., 4:1288-1303, 1990). Fucosyltransferase assays were performed in a total volume of 20 μl, and contained 50 mM sodium cacodylate, pH 6.2, 5 mM ATP, 10 mM fucose, 20 mM MnCl2, 3 μM GDP-^14C-fucose, and 5 μl (30 μg protein) of cell extract. Acceptor substrates were added to a final concentration of 20 mM. Reactions were incubated at 37° C. for 1 hour and terminated by addition of 20 μl ethanol, followed by addition of 600 μl of distilled water. An aliquot of each reaction (50 μl) was subjected to scintillation counting to determine total radioactivity in the reaction. Another aliquot (200 μl) was applied to a column containing 400 μl of Dowex 1X2-400, formate form (Rajan et al, J. Biol. Chem., 264:11158-11167, 1989). The flow through fraction, and […] of a subsequent water elution, were collected and pooled, and an aliquot was subjected to scintillation counting to quantitate incorporation of radioactive fucose into neutral product.
Table 2 presents the relative product formation rates obtained with low molecular weight acceptor substrates using cell extracts containing recombinant human α(1,3)fucosyltransferases expressed in transfected COS-1 cells, as described in the preceding sections. Fucosyltransferase assays were performed as described in detail in Lowe et al, J. Biol. Chem., (1991), 266:17467-17477; Weston et al, J. Biol. Chem. (1992), 267:4152-4160; and Kukowska-Latallo et al, Genes. Devel., (1990), 4:1288-1303. For each enzyme, the same extract was used, with saturating amounts of each acceptor oligosaccharide (20 mM, except for 2′-fucosylactose which was used at 5 mM), and GDP-^14C]fucose was present at 3 μM. Reaction times and enzyme amounts were adjusted to ensure a linear rate of product formation (less than 15% of the GDP-fucose substrate consumed). Products were separated by column chromatography and quantitated by liquid scintillation counting, and their structures were confirmed by high performance liquid chromatography, as described in Lowe et al, J. Biol. Chem., (1991), 266:17467-17477; Weston et al, J. Biol. Chem. (1992), 267:4152-4160; and Kukowska-Latallo et al, Genes. Devel., (1990), 4:1288-1303.

[2] = target: T2, Fuc-TIV (Homo sapiens, UniProt P22083); test: Fucosyltransferase assay, extracts of CHO-FT3 cells (CHO transfected with pCDNA1-Fuc-TIV); assay type: biochemical; set-up: expressed in transfected cells; settings: standard assay, CHO-FT3 cell extracts
T2 sequence (P22083 1-405 isoform P22083-2): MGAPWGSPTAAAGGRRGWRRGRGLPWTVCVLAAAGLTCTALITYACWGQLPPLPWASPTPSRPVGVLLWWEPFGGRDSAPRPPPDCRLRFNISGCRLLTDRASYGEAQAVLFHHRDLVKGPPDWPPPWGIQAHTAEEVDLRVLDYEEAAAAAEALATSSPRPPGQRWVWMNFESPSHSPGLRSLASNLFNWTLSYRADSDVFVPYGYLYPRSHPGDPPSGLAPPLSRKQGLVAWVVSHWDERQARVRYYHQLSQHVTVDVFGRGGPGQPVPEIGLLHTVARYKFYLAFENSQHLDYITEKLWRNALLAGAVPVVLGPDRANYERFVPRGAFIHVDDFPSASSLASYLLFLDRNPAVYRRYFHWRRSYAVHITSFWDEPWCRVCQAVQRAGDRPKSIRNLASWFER
Procedure: CHO Ade-C cells were transfected with Scal-linearized pCDM7-Fuc-TIV, co-precipitated in a 10-fold molar excess over EcoRI-linearized pSV2-Neo. A single, clonal, SSEA-1-positive cell line (CHO-FT3) was derived from this population. Cell extracts prepared from CHO-FT3 contained substantial amounts of α(1,3)fucosyltransferase activity when assayed with the acceptor N-acetyllactosamine.
as §1, with “cells.” for “cells, using procedures described previously (Kukowska-Latallo et al, Genes Devel., 4:1288-1303, 1990).”, “IX2-400,” for “1X2-400,”, “form.” for “form (Rajan et al, J. Biol. Chem., 264:11158-11167, 1989).”, “product. Descending paper chromatography was used to confirm the structure of the product formed with the acceptor N-acetyllactosamine. The neutral product in the Dowex column eluate was concentrated by lyophilization, resuspended in a small volume of water, and fractionated through Whatman No. 40 in phenol/isopropanol/formic acid/water (85:5:10:100, lower layer). After chromatography (40 hours), the air-dried chromatogram was cut into 1 cm strips and the strips eluted into 2 ml of water. Radioactivity in each eluate was determined by scintillation counting after mixing with 10 ml of scintillation cocktail.” for “product.”

| utilization as acceptor substrate by Fuc-TVI (in words) [1] | Relative Activity (%) with Fuc-TVI [1] [%] | α(1,3)fucosyltransferase activity with acceptor substrate [2] [pmol/mg/h] | Compound |
| --- | --- | --- | --- |
| did not function as acceptor substrates | <1 | 2.0 | OC[C@H]1O[C@@H](O[C@H]2[C@H](O)[C@@H](O)C(O)O[C@@H]2CO)[C@H](O)[C@@H](O)[C@H]1O (stereo partly shown) [lactose] |
| did not function as acceptor substrates | <1 | 5.8 | Fucα(1,2)Galβ(1,4)Glc [2-fucosyllactose] |

Further lines, the compound ahead of its results:

| Compound | utilization as acceptor substrate by Fuc-TVI (in words) [1] | Relative Activity (%) with Fuc-TVI [1] [%] | α(1,3)fucosyltransferase activity with acceptor substrate [2] [pmol/mg/h] |
| --- | --- | --- | --- |
| CC(=O)N[C@H]1C(O)O[C@H](CO)[C@@H](O[C@@H]2O[C@H](CO)[C@H](O)[C@H](O)[C@H]2O)[C@@H]1O (stereo partly shown) [N-acetyllactosamine] | utilized | 100 | 59.1 |
| CC(=O)N[C@@H]1[C@@H](O[C@@H]2O[C@H](CO)[C@H](O)[C@H](O)[C@H]2O)[C@H](O)[C@@H](CO)O[C@@H]1O [lacto-N-biose I] | not utilized | <1 | – |
| CC(=O)NC1C(O)OC(CO)C(OC2OC(CO)C(O)C(OC3(C(=O)O)CC(O)C(NC(C)=O)C(C(O)C(O)CO)O3)C2O)C1O (stereo not drawn) [α(2,3)sialyllactosamine, NeuAcα(2→3)Galβ(1→4)GlcNAc] | efficiently utilized | 110 | – |
